Test results taken from patent US12077503B2, “Substituted cyclic amides and their use as herbicides” (FMC CORPORATION, priority 2015, dated 2024).

Experiments:
Assay type in all cases: in vivo
Kochia (Kochia scoparia) [1] = assay: Test A preemergence; conditions: Bassia scoparia, pre-emergence, 240 h, Preemergence
Method in brief: (§1)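 Seeds sprayed preemergence with a directed soil spray, or plants at 2 to 10 cm height and one- to two-leaf stage sprayed postemergence, with test chemicals in a non-phytotoxic solvent mixture containing surfactant, in loam soil–sand blend. Injury rated visually against untreated controls after about 10 d in greenhouse, 0 (no effect) to 100 (complete control).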

[2] = system: barnyardgrass (Echinochloa crus-galli); assay: Test A preemergence; conditions: Echinochloa crus-galli, pre-emergence, 240 h, Preemergence
Method in brief: as §1

[3] = system: giant foxtail (Setaria faberii); assay: Test A preemergence; conditions: Setaria faberi, pre-emergence, 240 h, Preemergence
Method in brief: as §1

[4] = system: pigweed (Amaranthus retroflexus); assay: Test A preemergence; conditions: Amaranthus retroflexus, pre-emergence, 240 h, Preemergence
[5] = system: ragweed (common ragweed, Ambrosia elatior); assay: Test A preemergence; conditions: Ambrosia artemisiifolia, pre-emergence, 240 h, Preemergence
Method in brief: as §1

[6] = system: ryegrass, Italian (Italian ryegrass, Lolium multiflorum); assay: Test A preemergence; conditions: Lolium multiflorum, pre-emergence, 240 h, Preemergence
Method in brief: as §1

[7] = system: Galium (catchweed bedstraw, Galium aparine); assay: Test A postemergence; conditions: Galium, post-emergence, 240 h, Postemergence, read-out: Plant response rating, Galium
Method in brief: as §1

Kochia (Kochia scoparia) [8] = assay: Test A postemergence; conditions: Bassia scoparia, post-emergence, 240 h, Postemergence, read-out: Plant response rating, Kochia
Method in brief: as §1

[9] = system: barnyardgrass (Echinochloa crus-galli); assay: Test A postemergence; conditions: Echinochloa crus-galli, post-emergence, 240 h, Postemergence, read-out: Plant response rating, Barnyardgrass
Method in brief: as §1

[10] = system: blackgrass (Alopecurus myosuroides); assay: Test A postemergence; conditions: Alopecurus myosuroides, post-emergence, 240 h, Postemergence, read-out: Plant response rating, Blackgrass
Method in brief: as §1

corn (Zea mays) = assay: Test A postemergence; conditions: Zea mays, post-emergence, 240 h, Postemergence
Method in brief: as §1

[11] = system: giant foxtail (Setaria faberii); assay: Test A postemergence; conditions: Setaria faberi, post-emergence, 240 h, Postemergence, read-out: Plant response rating, Foxtail, Giant
Method in brief: as §1

[12] = system: pigweed (Amaranthus retroflexus); assay: Test A postemergence; conditions: Amaranthus retroflexus, post-emergence, 240 h, Postemergence, read-out: Plant response rating, Pigweed
Method in brief: as §1

[13] = system: ragweed (common ragweed, Ambrosia elatior); assay: Test A postemergence; conditions: Ambrosia artemisiifolia, post-emergence, 240 h, Postemergence, read-out: Plant response rating, Ragweed
Method in brief: as §1

[14] = system: ryegrass, Italian (Italian ryegrass, Lolium multiflorum); assay: Test A postemergence; conditions: Lolium multiflorum, post-emergence, 240 h, Postemergence, read-out: Plant response rating, Ryegrass, Italian
Method in brief: as §1

[15] = system: wheat (Triticum aestivum); assay: Test A postemergence; conditions: Triticum aestivum, post-emergence, 240 h, Postemergence, read-out: Plant response rating, Wheat
Method in brief: as §1

[16] = system: barnyardgrass (Echinochloa crus-galli); assay: Test B flooded paddy test; conditions: Echinochloa crus-galli, 250 g ai/ha, Flood; 0 to 100 scale where 0 is no effect and 100 is complete control; read-out: Barnyardgrass plant response rating
Method in brief: (§2)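 Plants at 2-leaf stage flooded to 3 cm above soil, with compounds applied directly to paddy water and that depth maintained. Plants kept in greenhouse 13–15 d. Visual rating versus controls on a 0 (no effect) to 100 (complete control) scale.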

[17] = system: ducksalad (Heteranthera limosa); assay: Test B flooded paddy test; conditions: Heteranthera limosa, 250 g ai/ha, Flood; 0 to 100 scale where 0 is no effect and 100 is complete control; read-out: Ducksalad plant response rating
Method in brief: as §2

rice (Oryra sativa) = assay: Test B flooded paddy test; conditions: Oryza sativa, 250 g ai/ha, Flood; 0 to 100 scale where 0 is no effect and 100 is complete control; read-out: Rice plant response rating
Method in brief: as §2

[18] = system: sedge, umbrella (small-flower umbrella sedge, Cyperus difformis); assay: Test B flooded paddy test; conditions: Cyperus difformis, 250 g ai/ha, Flood; 0 to 100 scale where 0 is no effect and 100 is complete control; read-out: Sedge, Umbrella plant response rating
Method in brief: as §2

[19] = 125 g ai/ha, visual injury after approximately 10 d, 0 to 100 scale where 0 is no effect and 100 is complete control
[20] = 31 g ai/ha, visual injury after approx. 10 d, 0 to 100 scale, 0 no effect, 100 complete control

O=C(Nc1cccc(F)c1F)[C@H]1C(=O)N(O)CC[C@@H]1c1ccccc1 [Compound 1007]
0%: pest or weed control at 31 g/ha (Kochia (Kochia scoparia) [1]; 31 g ai/ha, 0 to 100 scale where 0 is no effect and 100 is complete control, read-out: Kochia plant response rating) | pest or weed control at 125 g/ha (Kochia (Kochia scoparia) [1]; 125 g ai/ha, visual injury rating after approximately 10 d, read-out: Kochia plant response rating (0 to 100 scale, 0 is no effect, 100 is complete control)) | pest or weed control at 125 g/ha ([2]; 125 g ai/ha, visual injury rating after approximately 10 d, read-out: Barnyardgrass plant response rating (0 to 100 scale, 0 is no effect, 100 is complete control)) | pest or weed control at 31 g/ha ([2]; 31 g ai/ha, 0 to 100 scale (0 no effect, 100 complete control), read-out: Plant response rating, Barnyardgrass) | pest or weed control at 125 g/ha ([3]; 125 g ai/ha, visual injury rating after approximately 10 d, read-out: Foxtail, Giant plant response rating (0 to 100 scale, 0 is no effect, 100 is complete control)) | pest or weed control at 31 g/ha ([3]; 31 g ai/ha, 0 to 100 scale (0 no effect, 100 complete control), read-out: Plant response rating, Foxtail, Giant) | pest or weed control at 31 g/ha ([4]; 31 g ai/ha, 0 to 100 scale where 0 is no effect and 100 is complete control, read-out: Pigweed plant response rating) | pest or weed control at 125 g/ha ([4]; 125 g ai/ha, visual injury rating after approximately 10 d, read-out: Pigweed plant response rating (0 to 100 scale, 0 is no effect, 100 is complete control)) | pest or weed control at 31 g/ha ([5]; 31 g ai/ha, 0 to 100 scale where 0 is no effect and 100 is complete control, read-out: Ragweed plant response rating) | pest or weed control at 125 g/ha ([5]; 125 g ai/ha, visual injury rating after approximately 10 d, read-out: Ragweed plant response rating (0 to 100 scale, 0 is no effect, 100 is complete control)) | pest or weed control at 31 g/ha ([6]; 31 g ai/ha, 0 to 100 scale where 0 is no effect and 100 is complete control, read-out: Ryegrass, Italian plant response rating) | pest or weed control at 125 g/ha ([6]; 125 g ai/ha, visual injury rating after approximately 10 d, read-out: Ryegrass, Italian plant response rating (0 to 100 scale, 0 is no effect, 100 is complete control)) | pest or weed control at 125 g/ha [7, 19] | pest or weed control at 31 g/ha [7, 20] | pest or weed control at 125 g/ha (Kochia (Kochia scoparia) [8]; [19]) | pest or weed control at 31 g/ha (Kochia (Kochia scoparia) [8]; [20]) | pest or weed control at 125 g/ha [9, 19] | pest or weed control at 31 g/ha [9, 20] | pest or weed control at 125 g/ha [10, 19] | pest or weed control at 31 g/ha [10, 20] | Corn plant response rating (crop injury, 0 = no effect, 100 = complete kill) at 125 g/ha (corn (Zea mays); [19]) | Corn plant response rating (crop injury, 0 = no effect, 100 = complete kill) at 31 g/ha (corn (Zea mays); [20]) | pest or weed control at 125 g/ha [11, 19] | pest or weed control at 31 g/ha [11, 20] | pest or weed control at 125 g/ha [12, 19] | pest or weed control at 31 g/ha [12, 20] | pest or weed control at 125 g/ha [13, 19] | pest or weed control at 31 g/ha [13, 20] | pest or weed control at 125 g/ha [14, 19] | pest or weed control at 31 g/ha [14, 20] | plant injury at 125 g/ha [15, 19] | plant injury at 31 g/ha [15, 20] | pest or weed control at 250 g/ha [16] | pest or weed control at 250 g/ha [17] | pest or weed control at 250 g/ha (rice (Oryra sativa)) | pest or weed control at 250 g/ha [18]
